Data published in patent publication US20250162995A1, “PHENTOLAMINE MESYLATE AND THERAPEUTIC USES THEREOF” (Opus Genetics, Inc., priority 2023, published 2025).
Structures can show the parent of a compound that is named as a salt.

Test: XRPD analysis of the solid form after further drying (form stability)
Format: physicochemical
Settings: further dried at 0.24 bar and 25° C. for 16 hours
Description: Unless otherwise noted, XRPD data was collected using a PANanalytical EMPYREAN vs. 8.2 20201404 diffractometer with a Cu-Kα radiation (λ=1.541874 Å) source operating at 45 kV and 40 mA in transmission theta-theta configuration. Samples were scanned from 2° to 40° 2-theta with a step size of 0.013° 2-theta and a time per step of 78.795 sec. Data collection was performed with DATA COLLECTOR vs. 7.1 and processed with Data Viewer vs. 2.1 and Profex 5.2.4 software.
The phentolamine mesylate obtained according to this Example 4 was further dried at 0.24 bar and 25° C. for 16 hours.
The phentolamine mesylate obtained according to this Example 6 was further dried at 25° C. at 0.24 bar for 16 hours.
The phentolamine mesylate obtained according to this Example 7 was further dried at 0.24 bars at 25° C. for 16 hours.
The phentolamine mesylate obtained according to this Example 11 was further dried at 25° C. and 0.24 bar for 16 hours.
The phentolamine mesylate obtained according to this Example 12 was further dried at 25° C. and 0.24 bar for 16 hours.

Row | SMILES | solid form found by XRPD analysis of the further dried material
1 | Cc1ccc(N(CC2=NCCN2)c2cccc(O)c2)cc1 [Example 4, phentolamine mesylate] | converted to a mixture of the phentolamine mesylate having XRPD peaks of Reference A and the phentolamine mesylate obtained according to Example 1
2 | Cc1ccc(N(CC2=NCCN2)c2cccc(O)c2)cc1 [Example 6, phentolamine mesylate] | converted to the phentolamine mesylate obtained according to Example 1
3 | Cc1ccc(N(CC2=NCCN2)c2cccc(O)c2)cc1 [Example 7, phentolamine mesylate] | converted to the phentolamine mesylate obtained according to Example 1
4 | Cc1ccc(N(CC2=NCCN2)c2cccc(O)c2)cc1 [Example 11, phentolamine mesylate] | converted to the phentolamine mesylate obtained according to Example 1
5 | Cc1ccc(N(CC2=NCCN2)c2cccc(O)c2)cc1 [Example 12, phentolamine mesylate] | converted to the phentolamine mesylate obtained according to Example 1
